Source: article PMC11124387, “A Reliable Multifaceted Solution against Foodborne Viral Infections: The Case of RiLK1 Decapeptide” (Molecules, 2024)
“And” between values parts separate entries of the source, which are not always exact repeats. Identical values can stand only once. Like-named read-outs stand apart in the source and are kept apart here. Where a SMILES comes first, the peptide text is derived from it.

Assays:
[1] = test system: Murine norovirus strain 1 (MNV-1); format: cell-based; details: for Viral Titre after Treatment: titration on RAW 264.7 cells; for Viral Titre after Treatment / LRV (log reduction value): mean ± SD, triplicate
Description: (§1) Murine norovirus strain 1 (MNV-1) was used as a surrogate for human norovirus (NoV). The virus was replicated in RAW 264.7 cells (murine macrophage cell line) cultured in Dulbecco’s modified Eagle’s medium (DMEM) supplemented with 1% glutamine, 1% non-essential amino acids, and 2% fetal bovine serum (FBS). Hepatitis A virus (HAV) strain HM-175 was replicated in Frp3 cells (non-human primate cell line derived from fetal kidney) cultured in minimum essential medium (MEM) with Earle’s salts supplemented with 1% glutamine, 2% non-essential amino acids, and 2% FBS. Both viruses were incubated in 5% CO2 at 37 °C. All cell culture media were provided by EuroClone (Milan, Italy). The viral suspensions were prepared by freeze and thaw lysis (1 cycle for MNV-1 and 3 cycles for HAV) of infected monolayers, clarified using low-speed centrifugation (800× g) to remove residual cell debris, then divided in aliquots, and stored at −80 °C until use.
(§2) Solutions 40 µM and 80 µM of each peptide of the panel (RiLK1, RiLK3, RiLK30, 1018-K6, MTP1, and AVP2) were chosen for the virucidal tests. HAV and MNV-1 were assayed at a concentration of 4.7 ± 0.2 log TCID50/mL and 4.5 ± 0.2 log TCID50/mL, respectively. The suspensions containing the peptides and viruses were incubated for 1 h at room temperature (RT,20 ± 2 °C) and 4 °C. These temperatures were chosen to simulate the use of sanitizing solutions in food production/processing environments. Residual viral infectivity was evaluated by titration (TCID50/mL) on Frp3 cells for HAV and on RAW 264.7 cells for MNV-1. Untreated HAV and MNV-1 suspensions and 40 µM and 80 µM AMP solutions, incubated at the same conditions, were used as controls. Each treatment condition was assayed in triplicate. For titration, 100 µL of serial tenfold dilutions of each sample were assayed in 24-well tissue culture plates containing 24–48 h cell monolayers and incubated for 1 h in 5% CO2 at 37 °C. After that, the wells were washed twice with 200 µL of PBS, and 500 µL of DMEM/MEM, supplemented with 2% of FBS, were was added to each well; MNV-1 and HAV incubations were carried for up to 6 days and 14 days, respectively, in 5% CO2 at 37 °C with daily visual inspection to determine the cytopathic effect. The virucidal efficacy of AMPs was estimated by comparing the titers of treated and untreated viral suspensions.
(§3) For each treatment, the average and standard deviation of the triplicate analyses were calculated. The virucidal effects of AMPs was assessed by calculating the log reduction value (LRV), i.e., the difference between the infectious titer (log-transformed) of untreated versus treated samples. The statistical significance of differences between treated and untreated samples was determined through one-way analysis of variance (ANOVA) with Bonferroni post hoc comparisons, with a significance level of p < 0.05 (GraphPad Prism v9.5.0, software San Diego, CA, USA).

[2] = pH 2; cited from earlier work
Description: In this context, to acquire important information on how the conformational properties of peptides might influence the structure–function relationships and their distinct membrane interaction profiles, the propensity of the new peptides, RiLK30 and AVP2, to adopt a defined secondary structure and to undergo conformational changes were examined by circular dichroism and fluorescence spectroscopy. These analyses were performed in the presence of a negatively charged SDS that is commonly used as a biomimetic membrane model to study the structural features of membranotropic molecules. In previous ...

[3] = test system: Hepatitis A virus (HAV) strain HM-175; experiment: Virucidal effect of peptides on HAV (residual infectivity by TCID50 titration on Frp3 cells); format: cell-based; details: for Viral Titre after Treatment: titration on Frp3 cells; for Viral Titre after Treatment / LRV (log reduction value): mean ± SD, triplicate
Description: as §1, §2, §3

[4] = format: physicochemical
Description: Circular Dichroism (CD) analysis was performed by a Jasco J-810 spectropolarimeter. The samples were loaded into a quartz cuvette of 0.1 cm path length (Hellma Analytics), and the spectra were recorded in the 195–250 nm range at a scan speed of 20 nm/min, averaging 5 scans. CD experiments were carried out in 10 mM Tris-HCl buffer, pH 7.0, as a function of SDS concentrations (3, 50, and 150 mM) at a peptide concentration of 50 µM. The folding kinetic measurements of the peptides were performed after the addition of SDS (50 mM) to each sample (50 µM in 10 mM Tris-HCl, pH 7.0) up to 24 h of incubation. For thermal stability analyses, the peptides were prepared to a final concentration of 50 μM in 10 mM Tris-HCl, pH 7.0, and then they were incubated at 4 and 25 °C up to 48 h before acquiring the CD spectra in the presence of 50 mM SDS. A blank spectrum of a sample containing all components except the peptide was acquired for the baseline correction of the CD spectra of the peptide. The mean residue ellipticity ([θ], deg cm^2 dmol^−1) was obtained by the equation [θ] = 100 θ/cnl, where θ is the ellipticity (mdeg), c is the peptide concentration (mM), n is the number of residues, and l is the path length (cm).
Tryptophan (Trp) fluorescence emission spectra were recorded at 25 °C on a Shimadzu RF-6000 spectrofluorometer (Kyoto, Japan), with both excitation and emission slit widths set at 5 nm. The intrinsic Trp was excited at a wavelength of 280 nm and the emission was monitored between 300 and 400 nm. Fluorescence measurements were carried out in 10 mM Tris-HCl buffer, pH 7.0, as a function of SDS concentrations (3, 50, and 150 mM) at a peptide concentration of 50 µM. The folding kinetic experiments of AVP2 and RiLK30 were performed after the addition of SDS (50 mM) to each sample (50 µM concentration in 10 mM Tris-HCl buffer, pH 7.0) up to 24 h of incubation. The effect of temperature on peptide folding was analyzed by dissolving the peptides at a final concentration of 50 µM in 10 mM Tris-HCl buffer, pH 7.0, and incubating them at 4 and 25 °C up to 48 h. The spectra were recorded in the presence of 50 mM SDS.

[5] = MNV-1 4.5 ± 0.2 log TCID50/mL + peptide 80 µM, 1 h at 4 °C
[6] = MNV-1 + peptide 40 µM, 1 h at 4 °C
[7] = MNV-1 + peptide 40 µM, 1 h at RT (20 ± 2 °C)
[8] = MNV-1 + peptide 80 µM, 1 h at 4 °C
[9] = MNV-1 + peptide 80 µM, 1 h at RT (20 ± 2 °C)
[10] = HAV 4.7 ± 0.2 log TCID50/mL + peptide 80 µM, 1 h at 4 °C
[11] = HAV + peptide 40 µM, 1 h at 4 °C
[12] = HAV + peptide 40 µM, 1 h at 4 °C, untreated minus treated titre
[13] = HAV + peptide 40 µM, 1 h at RT (20 ± 2 °C)
[14] = HAV + peptide 80 µM, 1 h at 4 °C, untreated minus treated titre
[15] = HAV + peptide 80 µM, 1 h at RT (20 ± 2 °C)
[16] = maximum reduction, corresponding to the highest LRV

SMILES | Viral Titre after Treatment [1, 5] [logTCID50/mL] | LRV (log reduction value) [1, 6] [logTCID50/mL] | Viral Titre after Treatment [1, 6] [logTCID50/mL] | LRV (log reduction value) [1, 7] [logTCID50/mL] | Viral Titre after Treatment [1, 7] [logTCID50/mL] | LRV (log reduction value) [1, 8] [logTCID50/mL] | LRV (log reduction value) [1, 9] [logTCID50/mL] | Viral Titre after Treatment [1, 9] [logTCID50/mL] | Viral Titre after Treatment [3, 10] [logTCID50/mL] | Viral Titre after Treatment [3, 11] [logTCID50/mL] | LRV (log reduction value) [3, 12] [logTCID50/mL] | LRV (log reduction value) [3, 13] [logTCID50/mL] | Viral Titre after Treatment [3, 13] [logTCID50/mL] | LRV (log reduction value) [3, 14] [logTCID50/mL] | LRV (log reduction value) [3, 15] [logTCID50/mL] | Viral Titre after Treatment [3, 15] [logTCID50/mL] | other results
CC[C@H](C)[C@H](NC(=O)[C@H](CCCNC(=N)N)NC(=O)[C@@H](NC(=O)[C@H](CCCCN)NC(=O)[C@@H](NC(=O)[C@@H](NC(=O)[C@H](CC(C)C)NC(=O)[C@H](CCCNC(=N)N)NC(=O)[C@@H](N)C(C)C)[C@@H](C)CC)C(C)C)C(C)C)C(=O)N[C@@H](Cc1c[nH]c2ccccc12)C(=O)N[C@@H](CCCNC(=N)N)C(=O)N[C@@H](CCCNC(=N)N)C(N)=O [1018-K6] (H-VRLIVKVRIWRR-NH2; N-terminus assumed) | 4.3 ± 0.2 | 0 ± 0.3 | 4.5 ± 0.1 | 0 ± 0.4 | 4.5 ± 0.2 | 0.2 ± 0.4 | 0.2 ± 0.4 | 4.3 ± 0.2 | 3.3 ± 0.2 | 3.4 ± 0.1 | 1.3 ± 0.3 | 1.4 ± 0.4 | 3.3 ± 0.2 | 1.4 ± 0.4 | 1.4 ± 0.4 | 3.3 ± 0.2 | virucidal activity toward MNV-1 (in words) ([1]; 40 and 80 µM, 4 °C and RT): no significant effects; structural stability [2]: high structural stability; decrease of HAV infectious titer [3, 16]: up to 96.7%; infectivity reduction on HAV ([3]; text summary over 40 µM and 80 µM and the two temperatures (4 °C, RT)): 1.3–1.4 log
CC[C@H](C)[C@H](NC(=O)[C@H](Cc1cnc[nH]1)NC(=O)[C@H](CCCCN)NC(=O)[C@@H](NC(=O)[C@@H](NC(=O)[C@H](CC(=O)O)NC(=O)[C@H](Cc1ccccc1)NC(=O)[C@H](Cc1c[nH]c2ccccc12)NC(=O)CN)C(C)C)C(C)C)C(=O)N[C@@H](C)C(=O)N[C@@H](CCCCN)C(=O)N[C@@H](CCCNC(=N)N)C(=O)N[C@@H](Cc1ccccc1)C(N)=O [AVP2, reference compound] (H-GWFDVVKHIAKRF-NH2) |  |  |  |  |  |  |  |  |  |  |  |  |  |  |  |  | thermal (conformational) stability in SDS micellar solution ([4]; pH 7): at least 48 h
CC[C@H](C)[C@H](NC(=O)[C@H](Cc1c[nH]cn1)NC(=O)[C@H](CCCCN)NC(=O)[C@@H](NC(=O)[C@@H](NC(=O)[C@H](CC(=O)O)NC(=O)[C@H](Cc1ccccc1)NC(=O)[C@H](Cc1c[nH]c2ccccc12)NC(=O)CN)C(C)C)C(C)C)C(=O)N[C@@H](C)C(=O)N[C@@H](CCCCN)C(=O)N[C@@H](CCCNC(=N)N)C(=O)N[C@@H](Cc1ccccc1)C(N)=O [AVP2, reference compound] (H-GWFDVVKHIAKRF-NH2; N-terminus assumed) | 3.6 ± 0.1 | 0.9 ± 0.3 | 3.6 ± 0.1 | 0.9 ± 0.3 | 3.6 ± 0.1 | 0.9 ± 0.3 | 1.0 ± 0.3 | 3.5 ± 0.1 | 4.3 ± 0.2 | 4.3 ± 0.2 | 0.4 ± 0.4 | 0.4 ± 0.4 | 4.3 ± 0.2 | 0.4 ± 0.4 | 0.7 ± 0.5 | 4.0 ± 0.3 | conformational rearrangement over time (CD and fluorescence spectra) ([4]; peptide 50 µM, 10 mM Tris-HCl pH 7.0, SDS 50 mM, 24 h incubation at 37 °C (legend: 25 °C)): did not appear to undergo significant changes; LRV against MNV-1 ([1]; at both temperatures (4 °C, RT)): 0.9 log and 1.0 log; reduction of MNV-1 infectivity [1, 16]: up to 91.3%; virucidal activity toward HAV (in words) ([3]; 40 and 80 µM, 4 °C and RT): limited reduction in infectivity
